Source: PubChem BioAssay AID248 (DTP/NCI, 2004)
Several values for one entry are separate records, joined by “and”; a condition that tells them apart may be missing. Equal entries are not always repeated. Toxic doses and inconclusive results are not listed.

Test system: L1210 leukemia ip in BDF1 mice, survival T/C
Assay: NCI In Vivo Anticancer Drug Screen. Data for tumor model L1210 Leukemia (intraperitoneal) in B6D2F1 (BDF1) mice
Settings: endpoint: mean survival time, higher = longer survival
Method in brief: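 Survival endpoint. Drug-treated group vs vehicle group, expressed as T divided by C. Tumor passaged by transplantation.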

[1] = dose: 100.0 mg/kg/injection, schedule: Q04DX002 (ip), vehicle: Klucel (hydroxypropylcellulose) (HPC)
[2] = dose: 200.0 mg/kg/injection, schedule: Q04DX002 (ip), vehicle: Klucel (hydroxypropylcellulose) (HPC)
[3] = dose: 400.0 mg/kg/injection, schedule: Q04DX002 (ip), vehicle: Klucel (hydroxypropylcellulose) (HPC)
[4] = dose: 25.0 mg/kg/injection, schedule: Q04DX002 (ip), vehicle: Klucel (hydroxypropylcellulose) (HPC)
[5] = dose: 50.0 mg/kg/injection, schedule: Q04DX002 (ip), vehicle: Klucel (hydroxypropylcellulose) (HPC)
[6] = dose: 400.0 mg/kg/injection, schedule: Q04DX002 (ip), vehicle: saline with Tween-80
[7] = dose: 100.0 mg/kg/injection, schedule: Q01DX009 (ip), vehicle: other
[8] = dose: 200.0 mg/kg/injection, schedule: Q01DX009 (ip), vehicle: other
[9] = dose: 100.0 mg/kg/injection, schedule: Q01DX009 (ip), vehicle: Klucel (hydroxypropylcellulose) (HPC)
[10] = dose: 200.0 mg/kg/injection, schedule: Q01DX009 (ip), vehicle: Klucel (hydroxypropylcellulose) (HPC)

## O=C(C(Cl)(Cl)Cl)C(Cl)(Cl)Cl
dose: 75.0 mg/kg/injection, schedule: Q01DX009 (ip), vehicle: saline with Tween-80
  T/C: 90 % of control
[1]
  T/C: 113 % of control
dose: 150.0 mg/kg/injection, schedule: Q01DX009 (ip), vehicle: saline with Tween-80
  T/C: 93 % of control
[2]
  T/C: 113 % of control
dose: 300.0 mg/kg/injection, schedule: Q01DX009 (ip), vehicle: saline with Tween-80
  T/C: 86 % of control
[3]
  T/C: 87 % of control

## O=C(O)C1Cc2ccccc21 (configuration not stated)
[4]
  T/C: 96 % of control
[5]
  T/C: 96 % of control
[1]
  T/C: 92 % of control

## OCCOCCN1CCN(CC/C=C2\c3ccccc3Sc3ccc(C(F)(F)F)cc32)CC1
dose: 1.56 mg/kg/injection, schedule: Q01DX009 (ip), vehicle: saline
  T/C: 104 % of control
dose: 1.56 mg/kg/injection, schedule: Q04DX003 (ip), vehicle: saline
  T/C: 100 % of control
dose: 2.5 mg/kg/injection, schedule: Q01DX009 (ip), vehicle: saline
  T/C: 98 % of control
dose: 3.12 mg/kg/injection, schedule: Q01DX009 (ip), vehicle: saline
  T/C: 111 % of control
dose: 3.12 mg/kg/injection, schedule: Q04DX003 (ip), vehicle: saline
  T/C: 94 % of control
dose: 5.0 mg/kg/injection, schedule: Q01DX009 (ip), vehicle: saline
  T/C: 108 % of control
dose: 6.25 mg/kg/injection, schedule: Q01DX009 (ip), vehicle: saline
  T/C: 106 % of control
dose: 6.25 mg/kg/injection, schedule: Q04DX003 (ip), vehicle: saline
  T/C: 101 % of control
dose: 6.9 mg/kg/injection, schedule: Q01DX015 (ip), vehicle: saline
  T/C: 115 % of control
dose: 8.0 mg/kg/injection, schedule: Q04DX003 (ip), vehicle: saline with Tween-80
  T/C: 116 % of control
dose: 9.2 mg/kg/injection, schedule: Q01DX009 (ip), vehicle: saline
  T/C: 103 % of control
dose: 10.0 mg/kg/injection, schedule: Q01DX009 (ip), vehicle: saline
  T/C: 117 % of control
dose: 10.3 mg/kg/injection, schedule: Q01DX015 (ip), vehicle: saline
  T/C: 105 % of control
dose: 14.0 mg/kg/injection, schedule: Q01DX009 (ip), vehicle: saline
  T/C: 117 % of control
dose: 20.0 mg/kg/injection, schedule: Q01DX009 (ip), vehicle: saline
  T/C: 117 % of control
dose: 21.0 mg/kg/injection, schedule: Q01DX009 (ip), vehicle: saline
  T/C: 88 % of control
dose: 25.0 mg/kg/injection, schedule: Q01DX001 (ip), vehicle: saline
  T/C: 116 % of control
dose: 40.0 mg/kg/injection, schedule: Q01DX009 (ip), vehicle: saline
  T/C: 96 % of control
dose: 50.0 mg/kg/injection, schedule: Q01DX001 (ip), vehicle: saline
  T/C: 105 % of control and 114 % of control
dose: 100.0 mg/kg/injection, schedule: Q01DX001 (ip), vehicle: saline
  T/C: 108 % of control
dose: 100.0 mg/kg/injection, schedule: Q04DX003 (ip), vehicle: saline
  T/C: 123 % of control

## CC(=O)SCC(C)SC(C)=O (configuration not stated)
dose: 12.5 mg/kg/injection, schedule: Q04DX002 (ip), vehicle: saline with Tween-80
  T/C: 93 % of control
dose: 25.0 mg/kg/injection, schedule: Q04DX002 (ip), vehicle: saline with Tween-80
  T/C: 98 % of control
dose: 50.0 mg/kg/injection, schedule: Q04DX002 (ip), vehicle: saline with Tween-80
  T/C: 93 % of control

## CN1C(=O)c2c(Cl)c(Cl)c(Cl)c(Cl)c2C1=O
dose: 222.0 mg/kg/injection, schedule: Q01DX Z (ip), vehicle: methylcellulose (MC)
  T/C: 105 % of control
dose: 333.0 mg/kg/injection, schedule: Q01DX Z (ip), vehicle: methylcellulose (MC)
  T/C: 105 % of control
dose: 500.0 mg/kg/injection, schedule: Q01DX Z (ip), vehicle: methylcellulose (MC)
  T/C: 98 % of control

## C/C(=N/Nc1c(F)c(F)c(-c2c(F)c(F)c(N/N=C(\C)c3ccccc3)c(F)c2F)c(F)c1F)c1ccccc1
dose: 25.6 mg/kg/injection, schedule: Q04DX002 (ip), vehicle: saline with Tween-80
  T/C: 95 % of control
dose: 64.0 mg/kg/injection, schedule: Q04DX002 (ip), vehicle: saline with Tween-80
  T/C: 92 % of control
dose: 160.0 mg/kg/injection, schedule: Q04DX002 (ip), vehicle: saline with Tween-80
  T/C: 89 % of control
[6]
  T/C: 92 % of control

## COc1cc2c3c(c1)-c1nc4ccccc4cc1CN3CCC2
[7]
  T/C: 102 % of control
dose: 100.0 mg/kg/injection, schedule: Q04DX003 (ip), vehicle: other
  T/C: 97 % of control
[8]
  T/C: 102 % of control
dose: 200.0 mg/kg/injection, schedule: Q04DX003 (ip), vehicle: other
  T/C: 100 % of control
dose: 400.0 mg/kg/injection, schedule: Q01DX009 (ip), vehicle: other
  T/C: 114 % of control
dose: 400.0 mg/kg/injection, schedule: Q04DX003 (ip), vehicle: other
  T/C: 97 % of control

## Cc1cc([N+](=O)[O-])ccc1NC(=O)c1c(Cl)c(Cl)c(C(=O)Nc2ccc([N+](=O)[O-])cc2C)c(Cl)c1Cl
[9]
  T/C: 101 % of control
[10]
  T/C: 94 % of control
dose: 400.0 mg/kg/injection, schedule: Q01DX009 (ip), vehicle: Klucel (hydroxypropylcellulose) (HPC)
  T/C: 103 % of control

## O=[N+]([O-])c1c[nH]c2ncnc(SCc3ccccc3)c12
dose: 100.0 mg/kg/injection, schedule: Q01DX001 (ip), vehicle: carboxymethylcellulose (CMC)
  T/C: 87 % of control
dose: 200.0 mg/kg/injection, schedule: Q01DX001 (ip), vehicle: carboxymethylcellulose (CMC)
  T/C: 93 % of control
dose: 400.0 mg/kg/injection, schedule: Q01DX001 (ip), vehicle: carboxymethylcellulose (CMC)
  T/C: 91 % of control

## O=C1/C(=C/c2ccc(Br)cc2)Cc2ccccc21
dose: 100.0 mg/kg/injection, schedule: Q04DX002 (ip), vehicle: saline with Tween-80
  T/C: 94 % of control
dose: 200.0 mg/kg/injection, schedule: Q04DX002 (ip), vehicle: saline with Tween-80
  T/C: 90 % of control
[6]
  T/C: 90 % of control

## O=C(O)CC1CCCCC1CC(=O)O (configuration not stated)
[4]
  T/C: 101 % of control
[5]
  T/C: 98 % of control
[1]
  T/C: 92 % of control
[2]
  T/C: 95 % of control and 97 % of control
[3]
  T/C: 107 % of control

## Fc1c(F)c(F)[c]([Sn]([c]2ccccc2)([c]2ccccc2)[c]2ccccc2)c(F)c1F
dose: 1.56 mg/kg/injection, schedule: Q01DX009 (ip), vehicle: saline with Tween-80
  T/C: 102 % of control
dose: 3.13 mg/kg/injection, schedule: Q01DX009 (ip), vehicle: saline with Tween-80
  T/C: 94 % of control
dose: 6.25 mg/kg/injection, schedule: Q01DX009 (ip), vehicle: saline with Tween-80
  T/C: 92 % of control

## COc1cc2c(cc1[N+](=O)[O-])-c1ccc([N+](=O)[O-])cc1/C2=N/NC(N)=S
dose: 75.0 mg/kg/injection, schedule: Q01DX001 (ip), vehicle: carboxymethylcellulose (CMC)
  T/C: 101 % of control

## C/C=C/C=N/NC(=O)c1ccc(OC)cc1
[9]
  T/C: 102 % of control
[10]
  T/C: 86 % of control

## CCCNC(=NC)c1ccc(NC(=O)c2ccc(C(=O)Nc3ccc(C(=NC)NCCC)cc3)cc2)cc1
dose: 1.6 mg/kg/injection, schedule: Q01DX Z (ip), vehicle: saline
  T/C: 94 % of control
dose: 2.4 mg/kg/injection, schedule: Q01DX Z (ip), vehicle: saline
  T/C: 111 % of control
dose: 3.6 mg/kg/injection, schedule: Q01DX Z (ip), vehicle: saline
  T/C: 107 % of control and 120 % of control
dose: 5.5 mg/kg/injection, schedule: Q01DX Z (ip), vehicle: saline
  T/C: 156 % of control and 162 % of control
dose: 8.3 mg/kg/injection, schedule: Q01DX Z (ip), vehicle: saline
  T/C: 151 % of control and 172 % of control
dose: 12.5 mg/kg/injection, schedule: Q## X000 (oral), vehicle: saline
  T/C: 103 % of control
dose: 25.0 mg/kg/injection, schedule: Q## X000 (oral), vehicle: saline
  T/C: 100 % of control
dose: 50.0 mg/kg/injection, schedule: Q## X000 (oral), vehicle: saline
  T/C: 101 % of control
dose: 250.0 mg/kg/injection, schedule: Q01DX010 (oral), vehicle: saline
  T/C: 107 % of control
dose: 500.0 mg/kg/injection, schedule: Q01DX010 (oral), vehicle: saline
  T/C: 114 % of control

## CCC(C(=O)C(C)C(O)C(C)CCc1ccc(C)c(O)c1C(=O)O)C1OC(CC)(C2CCC(O)(CC)C(C)O2)CC1C (configuration not stated)
dose: 6.25 mg/kg/injection, schedule: Q04DX002 (ip), vehicle: saline
  T/C: 100 % of control
dose: 12.5 mg/kg/injection, schedule: Q04DX002 (ip), vehicle: saline
  T/C: 92 % of control
dose: 25.0 mg/kg/injection, schedule: Q04DX002 (ip), vehicle: saline
  T/C: 92 % of control
dose: 50.0 mg/kg/injection, schedule: Q04DX002 (ip), vehicle: saline
  T/C: 103 % of control

## COC(=O)c1ccccc1N=NN(C)C1CCCCC1
[7]
  T/C: 106 % of control
[8]
  T/C: 87 % of control
